Results: patent publication EP2465840A1, “Terpene ether” (CABB GmbH, priority 2010, dated 2012)
“Also recorded” adds a separate entry of the source.

Columns and labels:
Type in all cases: physicochemical
[1] = Appearance of cleaning formulation after 24 h
[2] = pH of cleaning formulation after addition of terpene ether
[3] = Visual evaluation of foam (foam appearance, bubble size); parameters: key to Blasengröße nach 1 min. / Blasengröße nach 5 min.: klein (1); mittel (2); mittel-groß (3); groß (4); sehr groß (5); key to Aussehen des Schaums nach 1 min. / Aussehen des Schaums nach 5 min.: verschwindend (1); locker (2); mittelkompakt (3); sehr kompakt (4)
Procedure: Die Qualität des Schaums wurde visuell nach der folgenden Methode festgestellt: 100 g der Lösung mit 0,5 % WAS wurden in einen 250 ml Glaszylinder mit Schraubverschluss und einem Innendurchmesser von 35 mm überführt. Der Zylinder wurde 10 mal gedreht und die Blasengröße und die Schaumkompaktheit wurden nach einer Minute nach dem Mischen und nach 5 Minuten ermittelt. Dabei erfolgte die Beurteilung auf der Grundlage der folgenden beschreibenden Parameter:
Aussehen des Schaums: verschwindend (1), locker (2), mittelkompakt (3), sehr kompakt (4)
Blasengröße: klein (1), mittel (2), mittel-groß (3), groß (4), sehr groß (5) Tabelle 4: […]

[4] = Foam height and foam stability of formulation; conditions: Reinigungsformulierung enthaltend Coco Glucosid, 0,5 %
Procedure: Die Schaumhöhe der Formulierungen wurde nach folgender Methode ermittelt: In einem 400 ml Becher wurden 100 g einer wässrigen Lösung mit 0,5 % WAS hergestellt. Für eine Minute wurde die Lösung bei […] runden […] wurde die […] Minute […]0) und 5 […]. Die Schaumstabilität in % ergibt sich dann über (h1/h0)*100.

[5] = Reinigungsformulierung enthaltend Coco Glucosid, +0,5 %
[6] = Reinigungsformulierung enthaltend Coco Glucosid, +1 %
[7] = Reinigungsformulierung enthaltend Coco Glucosid, +5 %
[8] = Reinigungsformulierung enthaltend Dinatriumlaurylsuccinat (wässrig), +0,5 %
[9] = Reinigungsformulierung enthaltend Dinatriumlaurylsuccinat (wässrig), +1 %
[10] = Reinigungsformulierung enthaltend Dinatriumlaurylsuccinat (wässrig), +5 %

SMILES: CC1(C)C2CCC1(C)C(OCC(O)CO)C2 (stereo not drawn) [NP 1, Glycerin-isobornylether]
- Aussehen nach 24 h [1, 5]: transparent; also recorded: Gel-flüssig
- Aussehen nach 24 h [1, 6]: transparent; also recorded: flüssig
- Aussehen nach 24 h [1, 7]: weiß and flüssig
- Aussehen nach 24 h [1, 8]: transparent; also recorded: flüssig
- Aussehen nach 24 h [1, 9]: transparent; also recorded: Gel-flüssig
- Aussehen nach 24 h [1, 10]: weiß and flüssig
- Aussehen nach 24 h ([1]; Reinigungsformulierung enthaltend Natriumlaurylethersulfat, Dinatriumcocoamphodiacetat, 0,5 % NaCl, +0,5 %): transparent Gel-flüssig
- Aussehen nach 24 h ([1]; Reinigungsformulierung enthaltend Natriumlaurylethersulfat, Dinatriumcocoamphodiacetat, 0,5 % NaCl, +0,25 %): transparent Gel-flüssig
- Aussehen nach 24 h ([1]; Reinigungsformulierung enthaltend Natriumlaurylethersulfat, Dinatriumcocoamphodiacetat, 0,5 % NaCl, +1 %): transparent Gel
- Aussehen nach 24 h ([1]; Reinigungsformulierung enthaltend Natriumlaurylethersulfat, Dinatriumcocoamphodiacetat, 0,5 % NaCl, +2 %): transparent flüssig
- Aussehen nach 24 h ([1]; Reinigungsformulierung enthaltend Natriumlaurylethersulfat, Dinatriumcocoamphodiacetat, 1 % NaCl, +0,5 %): transparent Gel
- Aussehen nach 24 h ([1]; Reinigungsformulierung enthaltend Natriumlaurylethersulfat, Dinatriumcocoamphodiacetat, 1 % NaCl, +0,25 %): transparent Gel
- Aussehen nach 24 h ([1]; Reinigungsformulierung enthaltend Natriumlaurylethersulfat, Dinatriumcocoamphodiacetat, 1 % NaCl, +1 %): transparent Gel
- Aussehen nach 24 h ([1]; Reinigungsformulierung enthaltend Natriumlaurylethersulfat, Dinatriumcocoamphodiacetat, 1 % NaCl, +2 %): transparent flüssig
- Aussehen nach 24 h ([1]; Reinigungsformulierung enthaltend Natriumlaurylethersulfat, Dinatriumcocoamphodiacetat, +0,5 %): transparent flüssig
- Aussehen nach 24 h ([1]; Reinigungsformulierung enthaltend Natriumlaurylethersulfat, Dinatriumcocoamphodiacetat, +0,25 %): transparent flüssig
- Aussehen nach 24 h ([1]; Reinigungsformulierung enthaltend Natriumlaurylethersulfat, Dinatriumcocoamphodiacetat, +1 %): transparent Gel-flüssig
- Aussehen nach 24 h ([1]; Reinigungsformulierung enthaltend Natriumlaurylethersulfat, Dinatriumcocoamphodiacetat, +2 %): transparent Gel-flüssig
- pH [2, 5]: 6
- pH [2, 6]: 6
- pH [2, 7]: 6
- pH [2, 8]: 6,3
- pH [2, 9]: 6,3
- pH [2, 10]: 6,3
- Aussehen des Schaums nach 1 min. [3, 5]: 3
- Aussehen des Schaums nach 5 min. [3, 5]: 1
- Blasengröße nach 1 min. [3, 5]: 3
- Blasengröße nach 5 min. [3, 5]: 5
- Aussehen des Schaums nach 1 min. [3, 6]: 3
- Aussehen des Schaums nach 5 min. [3, 6]: 1
- Blasengröße nach 1 min. [3, 6]: 3
- Blasengröße nach 5 min. [3, 6]: 5
- Aussehen des Schaums nach 1 min. [3, 7]: 3
- Aussehen des Schaums nach 5 min. [3, 7]: 1
- Blasengröße nach 1 min. [3, 7]: 3
- Blasengröße nach 5 min. [3, 7]: 5
- Aussehen des Schaums nach 1 min. [3, 8]: 3
- Aussehen des Schaums nach 5 min. [3, 8]: 2
- Blasengröße nach 1 min. [3, 8]: 3
- Blasengröße nach 5 min. [3, 8]: 4
- Aussehen des Schaums nach 1 min. [3, 9]: 3
- Aussehen des Schaums nach 5 min. [3, 9]: 2
- Blasengröße nach 1 min. [3, 9]: 3
- Blasengröße nach 5 min. [3, 9]: 4
- Aussehen des Schaums nach 1 min. [3, 10]: 3
- Aussehen des Schaums nach 5 min. [3, 10]: 1
- Blasengröße nach 1 min. [3, 10]: 4
- Blasengröße nach 5 min. [3, 10]: 5
- h1 ([4]; Schaumhöhe 5 Minuten nach dem Mischen, Lösung mit 0,5 % WAS): 200 mm
- h0 ([4]; Schaumhöhe eine Minute nach dem Mischen, Lösung mit 0,5 % WAS): 230 mm
- Stabilität ([4]; Schaumstabilität (h1/h0)*100): 87%
